Laboratory results published in patent US9605013B2, “Derivatives of hemin with antibacterial and antiviral activity” (OBSCHESTVO S OGRANICHENNOI OTVETSTVENNOSTIYU …, priority 2011, dated 2017).

Columns and labels:
Type in all cases: cell-based
[1] = test system: Micrococcus luteus BKM Ac-2230; assay: Antibacterial activity, serial dilutions in liquid MH medium; settings: for MIC: MH medium, 20 h, 37° C., 100% growth inhibition; for MBC: no colonies on agarized MH medium
How it was run: (§1)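 Broth microdilution in Mueller-Hinton medium at 37 °C with stirring, using exponential-phase cultures seeded at 5×10^4 to 1×10^5 cells/mL with twofold serial compound dilutions. Growth inhibition read as A595 after 20 h, corrected for compound absorbance; MIC and MBC determined.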

[2] = test system: Bacillus subtilis BKM B-501; assay: as above; settings: for MIC: MH medium, 20 h, 37° C., 100% growth inhibition; for MBC: no colonies on agarized MH medium
How it was run: as §1

[3] = test system: Enterococcus faecalis No. 559; assay: Antibacterial specific activity, twofold dilutions, visual growth evaluation; settings: E. faecalis 559; 36° C., 24 hours
How it was run: (§2)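 Twofold dilution series, water- or DMSO-soluble compounds; 5×10^5 CFU/ml; 36° C., 24 h; visual growth read; MIC = last suppressing dilution.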

[4] = test system: Staphylococcus aureus No. 5 (MRSA); assay: as above; settings: St. aur No. 5 MRSA; 36° C., 24 hours
How it was run: as §2

[5] = test system: Staphylococcus aureus No. 100 KC; assay: as above; settings: S. aureus 100 KC; 36° C., 24 hours
How it was run: as §2

[6] = test system: Staphylococcus epidermidis No. 533; assay: as above; settings: S. epidermis 533; 36° C., 24 hours
How it was run: as §2

[7] = test system: Staphylococcus aureus No. 25923 ATCC; assay: as above; settings: S. aureus 25923; 36° C., 24 hours
How it was run: as §2

[8] = test system: Staphylococcus aureus No. 3797 (MRSA); assay: as above; settings: St. aur No. 3797 MRSA; 36° C., 24 hours
How it was run: as §2

[9] = test system: Staphylococcus aureus 209P; assay: Antibacterial activity, serial dilutions in liquid MH medium; settings: for MBC: no colonies on agarized MH medium
How it was run: as §1

Compound | MIC [1] | MBC [1] | MIC [2] | MBC [2] | MIC [3] | MIC [4] | MIC [5] | MIC [6] | MIC [7] | MIC [8] | MBC [9] | MIC ([9]; MH medium, 20 h, 37° C., 100% growth inhibition)
6,7-bis-(Amide N^α-Glycyl)-Protohemin (IX) [IV] | 0.8 µM | 0.8 µM | 1.6 µM | 1.6 µM | 0.39 µM | 3.12 µM | 0.39 µM | 1.56 µM | 0.39 µM | 3.12 µM | – | –
6,7-bis-[(Diamide N^α-L-Arginyl)-L-glutamyl]-Protohemin (IX) | 0.8 µM | 0.8 µM | 1.6 µM | 1.6 µM | 3.12 µM | – | 0.78 µM | 0.78 µM | 1.56 µM | – | 25 µM | –
C=CC1=C(C)c2cc3[n-]c(cc4[n-]c(cc5nc(cc1n2)C(C)=C5C=C)c(C)c4CCC(=O)N[C@@H](CCCNC(=N)N)C(N)=O)c(CCC(=O)N[C@@H](CCCNC(=N)N)C(N)=O)c3C.[Cl-].[Fe+3] [II, 6,7-bis-(Amide N^α-Arginyl)-Protohemin (IX)] | 0.8 µM | 0.8 µM | 0.8 µM | 0.8 µM | 1.3 µM | 41 µM | 2.6 µM | 0.39 µM | 1.04 µM | 50 µM | 6.3 µM | –
C=CC1=C(C)c2cc3[n-]c(cc4[n-]c(cc5nc(cc1n2)C(C)=C5C=C)c(C)c4CCC(=O)N[C@@H](CO)C(N)=O)c(CCC(=O)N[C@@H](CO)C(N)=O)c3C.[Cl-].[Fe+3] [V, 6,7-bis-(Amide N^α-Seryl)-Protohemin (IX)] | 0.8 µM | 0.8 µM | 1.6 µM | 1.6 µM | 25 µM | 1.56 µM | 0.52 µM | 1.56 µM | 0.78 µM | 1.56 µM | 12.5 µM | –
C=CC1=C(C)c2cc3[n-]c(cc4[n-]c(cc5nc(cc1n2)C(C)=C5C=C)c(C)c4CCC(=O)N[C@@H](CO)C(=O)O)c(CCC(=O)N[C@@H](CO)C(=O)O)c3C.[Cl-].[Fe+3] [VI, 6,7-bis-(N^α-Seryl]-Protohemin (IX)] | 6.3 µM | 25 µM | 12.5 µM | 25 µM | >50.0 µM | 0.78 µM | 5.21 µM | 3.12 µM | 12.5 µM | 0.78 µM | – | 50 µM
